“And” between values parts separate entries of the source, which are not always exact repeats. Equal entries are not always repeated.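 Values below derive from 48-hour exposures of cells grown in 96-well plates, with endpoints linearly interpolated between the two concentrations bracketing the appropriate inhibition level. The concentration for 50% growth inhibition is given as GI50. The concentration for full growth arrest is given as TGI.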
What was measured:
Experiment in all cases: DTP human tumour cell line panel, 48 h
SN12C renal = tested on: SN12C renal
SF-295 CNS = tested on: SF-295 CNS
KM12 colon = tested on: KM12 colon
HS 578T breast = tested on: HS 578T breast
PC-3 prostate = tested on: PC-3 prostate
MALME-3M melanoma = tested on: MALME-3M melanoma
TK-10 renal = tested on: TK-10 renal
RXF 393 renal = tested on: RXF 393 renal

C=C1C(=O)O[C@H]2[C@H]1CC/C(COC(=O)NCc1ccc(Cn3c(=O)sn(-c4ccc(OC)cc4)c3=O)cc1)=C\CC[C@@]1(C)O[C@@H]21
GI50 (SN12C renal): 2.14 µM
TGI (SN12C renal): 4.96 µM
GI50 (SF-295 CNS): 15 µM
TGI (SF-295 CNS): 28.9 µM
GI50 (KM12 colon): 3.75 µM
TGI (KM12 colon): 14 µM
GI50 (HS 578T breast): 2.92 µM
TGI (HS 578T breast): 14.2 µM
GI50 (PC-3 prostate): 2.19 µM
TGI (PC-3 prostate): 5.27 µM
GI50 (MALME-3M melanoma): 1.81 µM
TGI (MALME-3M melanoma): 3.76 µM
GI50 (TK-10 renal): 1.91 µM
TGI (TK-10 renal): 3.49 µM

CCN(Cc1ccc(F)cc1)c1cc(Cl)c(CO)c(Cl)c1
GI50 (SN12C renal): 13.3 µM
TGI (SN12C renal): 26.8 µM
GI50 (SF-295 CNS): 10.9 µM
TGI (SF-295 CNS): 25.6 µM
GI50 (HS 578T breast): 12.2 µM
TGI (HS 578T breast): 33.4 µM
GI50 (PC-3 prostate): 11.3 µM
TGI (PC-3 prostate): 24.7 µM
GI50 (RXF 393 renal): 8.71 µM
TGI (RXF 393 renal): 21.6 µM
GI50 (MALME-3M melanoma): 17.8 µM
TGI (MALME-3M melanoma): 36.1 µM
GI50 (TK-10 renal): 2.58 µM
TGI (TK-10 renal): 13.8 µM

Cc1csc(-c2nnc(Nc3ccc(Oc4ncccc4-c4ccnc(N)n4)cc3)c3ccccc23)c1
GI50 (SN12C renal): 2.54 µM
TGI (SN12C renal): > 100 µM
GI50 (SF-295 CNS): 2.98 µM
TGI (SF-295 CNS): > 100 µM
GI50 (KM12 colon): 2.41 µM
TGI (KM12 colon): > 100 µM
GI50 (HS 578T breast): > 100 µM
TGI (HS 578T breast): > 100 µM
GI50 (PC-3 prostate): > 27.1 µM
TGI (PC-3 prostate): > 100 µM
GI50 (RXF 393 renal): 1.51 µM
TGI (RXF 393 renal): > 100 µM
GI50 (MALME-3M melanoma): 1.9 µM
TGI (MALME-3M melanoma): > 100 µM
GI50 (TK-10 renal): > 100 µM
TGI (TK-10 renal): > 100 µM

COc1cc(C2CC(C)(O)Oc3cc4c(cc32)OCO4)cc(OC)c1OC (stereo not drawn)
TGI (SN12C renal): > 100 µM
TGI (KM12 colon): 0.595 µM
TGI (HS 578T breast): 0.696 µM
TGI (RXF 393 renal): 0.403 µM
TGI (TK-10 renal): > 100 µM

O=C1CCC2(c3ccc(Cl)cc3)Nc3ccncc3N12 (stereo not drawn)
TGI (SN12C renal): > 10 µM
TGI (SF-295 CNS): > 10 µM
TGI (KM12 colon): > 10 µM
TGI (HS 578T breast): > 10 µM
TGI (PC-3 prostate): > 10 µM
TGI (MALME-3M melanoma): > 10 µM
TGI (TK-10 renal): > 10 µM

COc1ccc2nc(NC(=O)CSc3nnc4n3S(=O)(=O)c3ccccc3N4c3ccccc3)sc2c1
GI50 (SF-295 CNS): > 100 µM
TGI (SF-295 CNS): > 100 µM
GI50 (KM12 colon): > 100 µM
TGI (KM12 colon): > 100 µM
GI50 (HS 578T breast): > 100 µM
TGI (HS 578T breast): > 100 µM
GI50 (PC-3 prostate): > 100 µM
TGI (PC-3 prostate): > 100 µM
GI50 (MALME-3M melanoma): > 100 µM
TGI (MALME-3M melanoma): > 100 µM
GI50 (TK-10 renal): > 100 µM
TGI (TK-10 renal): > 100 µM

CCN(C(=O)N1CCN(c2cc3c(cc2F)c(=O)c(C(=O)O)cn3C2CC2)CC1)c1nc(-c2ccc(Cl)cc2)cs1
GI50 (SN12C renal): 0.991 µM
TGI (SN12C renal): > 100 µM
GI50 (SF-295 CNS): 0.888 µM
TGI (SF-295 CNS): 6 µM
GI50 (KM12 colon): 1.29 µM
TGI (KM12 colon): > 100 µM
GI50 (HS 578T breast): 1.26 µM
TGI (HS 578T breast): 13 µM
GI50 (PC-3 prostate): 0.858 µM
TGI (PC-3 prostate): > 26 µM
GI50 (RXF 393 renal): 0.978 µM
TGI (RXF 393 renal): 7.51 µM
GI50 (MALME-3M melanoma): 1.38 µM
TGI (MALME-3M melanoma): 5.95 µM
GI50 (TK-10 renal): 2.89 µM
TGI (TK-10 renal): > 51.9 µM

CCCCCCCCCCCCCCCC[N+](C)(C)Cc1ccccc1
GI50 (SF-295 CNS): 1.55 µM
TGI (SF-295 CNS): 3.29 µM
GI50 (KM12 colon): 1.13 µM
TGI (KM12 colon): 2.42 µM
GI50 (HS 578T breast): 1.82 µM
TGI (HS 578T breast): 4.89 µM
GI50 (PC-3 prostate): 0.537 µM
TGI (PC-3 prostate): 2 µM
GI50 (RXF 393 renal): 0.606 µM and 0.306 µM
TGI (RXF 393 renal): 1.97 µM and 1.35 µM
GI50 (MALME-3M melanoma): 1.24 µM
TGI (MALME-3M melanoma): 2.72 µM

O=S(=O)(c1ccccc1)N1CCN(S(=O)(=O)c2ccccc2)c2ccccc21
TGI (SN12C renal): > 100 µM
TGI (SF-295 CNS): > 100 µM
TGI (KM12 colon): > 100 µM
TGI (HS 578T breast): > 100 µM
TGI (PC-3 prostate): > 100 µM
TGI (RXF 393 renal): > 100 µM
TGI (MALME-3M melanoma): > 100 µM
TGI (TK-10 renal): > 100 µM

COC[C@H]1Cn2cc(-c3nc(Nc4ccnn4C)ncc3C)nc2C(=O)N1Cc1ccc(F)c(F)c1
GI50 (SN12C renal): 11.1 µM
TGI (SN12C renal): > 100 µM
GI50 (SF-295 CNS): > 100 µM
TGI (SF-295 CNS): > 100 µM
GI50 (KM12 colon): 0.586 µM
TGI (KM12 colon): > 100 µM
GI50 (HS 578T breast): 18.5 µM
TGI (HS 578T breast): > 100 µM
GI50 (PC-3 prostate): > 100 µM
TGI (PC-3 prostate): > 100 µM
GI50 (RXF 393 renal): 1.66 µM
TGI (RXF 393 renal): > 100 µM
GI50 (TK-10 renal): 5.5 µM
TGI (TK-10 renal): > 100 µM

COc1ccc(-c2cn[nH]c2-c2cc(OC)c(OC)c(OC)c2)cc1
GI50 (SN12C renal): 0.193 µM
TGI (SN12C renal): 47.3 µM
TGI (SF-295 CNS): 0.0379 µM
GI50 (KM12 colon): 0.0252 µM
TGI (KM12 colon): 12 µM
GI50 (HS 578T breast): 0.0408 µM
TGI (HS 578T breast): 22.5 µM
GI50 (PC-3 prostate): 0.0309 µM
TGI (PC-3 prostate): 59.8 µM
GI50 (RXF 393 renal): 0.0269 µM
TGI (RXF 393 renal): 25.1 µM

CC(C)=CCC(O)C1=CC(=O)c2c(O)ccc(O)c2C1=O (stereo not drawn)
TGI (SN12C renal): 1.45 µM
TGI (SF-295 CNS): 9.3 µM
TGI (KM12 colon): 16.9 µM
TGI (HS 578T breast): 6.2 µM
TGI (PC-3 prostate): 5.17 µM
TGI (RXF 393 renal): 2.11 µM
TGI (TK-10 renal): 3.04 µM

O=[N+]([O-])c1ccc(Cl)cc1N/N=C/c1ccnc2ccccc12
TGI (SN12C renal): > 100 µM
TGI (SF-295 CNS): > 100 µM
TGI (KM12 colon): > 100 µM
TGI (HS 578T breast): > 100 µM
TGI (PC-3 prostate): > 100 µM
TGI (RXF 393 renal): > 100 µM
TGI (TK-10 renal): > 100 µM

COc1cc(/C(C#N)=C/c2nc3c(N4CCOCC4)nc(Cl)nc3n2C)cc(OC)c1OC
GI50 (SN12C renal): < 0.01 µM
TGI (SN12C renal): 22.1 µM
GI50 (SF-295 CNS): < 0.01 µM
TGI (SF-295 CNS): 1.49 µM
GI50 (KM12 colon): < 0.01 µM
TGI (KM12 colon): 4.36 µM
GI50 (HS 578T breast): < 0.01 µM
TGI (HS 578T breast): > 23.7 µM
GI50 (PC-3 prostate): < 0.01 µM
TGI (PC-3 prostate): 7.62 µM
GI50 (MALME-3M melanoma): < 0.01 µM
TGI (MALME-3M melanoma): 20.8 µM
GI50 (TK-10 renal): 2.91 µM
TGI (TK-10 renal): 17.8 µM

CN(C)c1cc(NN=C(c2ccc(O)cc2)c2ccc(O)cc2)c([N+](=O)[O-])cc1[N+](=O)[O-]
GI50 (SN12C renal): 10.4 µM
TGI (SN12C renal): 23.7 µM
GI50 (SF-295 CNS): 1.86 µM
TGI (SF-295 CNS): 5.22 µM
GI50 (KM12 colon): 3.73 µM
TGI (KM12 colon): 13.8 µM
GI50 (PC-3 prostate): 4.85 µM
TGI (PC-3 prostate): 32.2 µM
GI50 (RXF 393 renal): 11.3 µM
TGI (RXF 393 renal): 26.9 µM
GI50 (MALME-3M melanoma): 13.7 µM
TGI (MALME-3M melanoma): 28 µM
GI50 (TK-10 renal): 7.35 µM
TGI (TK-10 renal): 22 µM

CCCCCCCCCCCCC(O)c1ccc(C#CCCCCCCCCCO)o1 (stereo not drawn)
GI50 (SN12C renal): 18.7 µM
TGI (SN12C renal): 33.2 µM
GI50 (SF-295 CNS): 16.4 µM
TGI (SF-295 CNS): 31.7 µM
GI50 (KM12 colon): 20.5 µM
TGI (KM12 colon): 39.9 µM
GI50 (HS 578T breast): 23.8 µM
TGI (HS 578T breast): 47.3 µM
GI50 (PC-3 prostate): 25.2 µM
TGI (PC-3 prostate): 59.6 µM
GI50 (RXF 393 renal): 17.9 µM
TGI (RXF 393 renal): 35.3 µM
GI50 (TK-10 renal): 15.7 µM
TGI (TK-10 renal): 30.5 µM

O=C(Oc1ccc(Cl)cc1)c1ccccc1Nc1ccnc(C(F)(F)F)c1
GI50 (SN12C renal): 2.95 µM
TGI (SN12C renal): 8.72 µM
GI50 (SF-295 CNS): 62.8 µM
TGI (SF-295 CNS): > 100 µM
GI50 (KM12 colon): 8.94 µM
TGI (KM12 colon): 23.1 µM
GI50 (HS 578T breast): 30.3 µM
TGI (HS 578T breast): 93.9 µM
GI50 (PC-3 prostate): 17 µM
TGI (PC-3 prostate): 63.2 µM
GI50 (TK-10 renal): 17.9 µM
TGI (TK-10 renal): 48.9 µM

Cc1nnc(NC(=O)c2nc(S(=O)(=O)Cc3ccc(F)cc3)ncc2Cl)s1
GI50 (SN12C renal): 2.39 µM
TGI (SN12C renal): 6.56 µM
GI50 (SF-295 CNS): 15.9 µM
TGI (SF-295 CNS): 30.7 µM
GI50 (KM12 colon): 18.5 µM
TGI (KM12 colon): 37 µM
GI50 (HS 578T breast): 12.7 µM
TGI (HS 578T breast): 50.8 µM
GI50 (PC-3 prostate): 10 µM
TGI (PC-3 prostate): 22.9 µM
GI50 (RXF 393 renal): 1.85 µM
TGI (RXF 393 renal): 3.51 µM
GI50 (MALME-3M melanoma): 1.8 µM
TGI (MALME-3M melanoma): 3.48 µM

Oc1[nH]c2ccccc2c1N=Nc1nc(-c2ccc(Br)cc2)cs1
TGI (SN12C renal): 83.2 µM
TGI (SF-295 CNS): 67.7 µM
TGI (KM12 colon): > 100 µM
TGI (HS 578T breast): 65 µM
TGI (PC-3 prostate): > 100 µM
TGI (RXF 393 renal): > 100 µM
TGI (TK-10 renal): 61.2 µM

From PubChem BioAssay (NCI)
